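Five compound concentrations were applied to cells in 96-well plates for 48 hours; endpoints were derived by simple linear interpolation of the resulting dose-response curve. GI50: concentration for 50% inhibition of growth.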 Active and inactive are the calls of the source. Cut-off read from the data, not from the text of the source: active = GI50 up to about 1.1 µM and inactive = higher.
Columns and labels:
Assay in all cases: NCI-60 cell line screen, 48 h
DU-145 = tested on: DU-145
MDA-MB-231 = tested on: MDA-MB-231
MOLT-4 = tested on: MOLT-4
U-251 = tested on: U-251
Malme-3M = tested on: Malme-3M
UO-31 = tested on: UO-31
OVCAR-5 = tested on: OVCAR-5
HT-29 = tested on: HT-29
HCT-15 = tested on: HCT-15
UACC-257 = tested on: UACC-257
SN12C = tested on: SN12C
CCRF-CEM = tested on: CCRF-CEM
RPMI-8226 = tested on: RPMI-8226
MCF7 = tested on: MCF7
EKVX = tested on: EKVX
KM12 = tested on: KM12
MDA-N = tested on: MDA-N
A498 = tested on: A498
MDA-MB-435 = tested on: MDA-MB-435
HCC 2998 = tested on: HCC 2998
COLO 205 = tested on: COLO 205
HCT-116 = tested on: HCT-116
CAKI-1 = tested on: CAKI-1
SW-620 = tested on: SW-620
PC-3 = tested on: PC-3
K562 = tested on: K562
SF-268 = tested on: SF-268
NCI-H460 = tested on: NCI-H460
ACHN = tested on: ACHN
SNB-75 = tested on: SNB-75
BT-549 = tested on: BT-549
SF-295 = tested on: SF-295
T47D = tested on: T47D
IGROV-1 = tested on: IGROV-1
M14 = tested on: M14
A549 = tested on: A549
HOP-62 = tested on: HOP-62
UACC-62 = tested on: UACC-62
SK-MEL-2 = tested on: SK-MEL-2
OVCAR-3 = tested on: OVCAR-3
OVCAR-8 = tested on: OVCAR-8
NCI-H522 = tested on: NCI-H522
HOP-92 = tested on: HOP-92
786-0 = tested on: 786-0
SK-MEL-28 = tested on: SK-MEL-28
HL-60 = tested on: HL-60
SNB-19 = tested on: SNB-19
SK-MEL-5 = tested on: SK-MEL-5
OVCAR-4 = tested on: OVCAR-4
Hs-578T = tested on: Hs-578T
RXF 393 = tested on: RXF 393
TK-10 = tested on: TK-10
LOX IMVI = tested on: LOX IMVI
NCI/ADR-RES = tested on: NCI/ADR-RES
NCI-H23 = tested on: NCI-H23
SF-539 = tested on: SF-539
SR = tested on: SR

CC1=NN(C(=O)CC(=O)Nc2ccccc2)C(=O)C1/N=N/c1ccc(C(=O)O)cc1 (configuration not stated)
GI50 (DU-145): > 100 µM (inactive)
GI50 (MDA-MB-231): > 100 µM (inactive)
GI50 (MOLT-4): > 100 µM (inactive)
GI50 (U-251): 97.3 µM (inactive)
GI50 (Malme-3M): > 100 µM (inactive)
GI50 (UO-31): > 100 µM (inactive)
GI50 (OVCAR-5): > 100 µM (inactive)
GI50 (HT-29): > 100 µM (inactive)
GI50 (HCT-15): > 100 µM
GI50 (UACC-257): > 100 µM (inactive)
GI50 (SN12C): > 100 µM (inactive)
GI50 (CCRF-CEM): > 100 µM (inactive)
GI50 (RPMI-8226): > 100 µM (inactive)
GI50 (MCF7): > 100 µM (inactive)
GI50 (EKVX): > 100 µM (inactive)
GI50 (KM12): > 100 µM (inactive)
GI50 (MDA-N): > 100 µM (inactive)
GI50 (A498): > 100 µM (inactive)
GI50 (MDA-MB-435): > 100 µM (inactive)
GI50 (HCC 2998): > 100 µM (inactive)
GI50 (COLO 205): > 100 µM (inactive)
GI50 (HCT-116): > 100 µM (inactive)
GI50 (CAKI-1): > 100 µM (inactive)
GI50 (SW-620): > 100 µM (inactive)
GI50 (PC-3): > 100 µM (inactive)
GI50 (K562): > 100 µM (inactive)
GI50 (SF-268): 77.8 µM (inactive)
GI50 (NCI-H460): > 100 µM (inactive)
GI50 (ACHN): > 100 µM (inactive)
GI50 (SNB-75): > 100 µM (inactive)
GI50 (BT-549): > 100 µM (inactive)
GI50 (SF-295): > 100 µM (inactive)
GI50 (T47D): 62.7 µM (inactive)
GI50 (IGROV-1): > 100 µM (inactive)
GI50 (M14): > 100 µM (inactive)
GI50 (A549): > 100 µM (inactive)
GI50 (HOP-62): 75.9 µM (inactive)
GI50 (UACC-62): > 100 µM (inactive)
GI50 (SK-MEL-2): > 100 µM (inactive)
GI50 (OVCAR-3): > 100 µM (inactive)
GI50 (OVCAR-8): > 100 µM (inactive)
GI50 (NCI-H522): > 100 µM (inactive)
GI50 (HOP-92): 22.1 µM (inactive)
GI50 (786-0): > 100 µM (inactive)
GI50 (SK-MEL-28): > 100 µM (inactive)
GI50 (HL-60): > 100 µM (inactive)
GI50 (SNB-19): 80.5 µM (inactive)
GI50 (SK-MEL-5): > 100 µM (inactive)
GI50 (OVCAR-4): > 100 µM (inactive)
GI50 (Hs-578T): 78.7 µM (inactive)
GI50 (RXF 393): > 100 µM (inactive)
GI50 (TK-10): > 100 µM (inactive)
GI50 (LOX IMVI): > 100 µM (inactive)
GI50 (NCI/ADR-RES): > 100 µM (inactive)
GI50 (NCI-H23): > 100 µM (inactive)
GI50 (SF-539): 84.7 µM (inactive)
GI50 (SR): 50.6 µM (inactive)
